Experimental data reported in PubChem BioAssay (NCI).
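Each compound was tested at five concentrations against cells in 96-well plates for 48 hours. GI50 marks 50% less growth. TGI is the concentration that stops growth completely.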

Tests used:
Assay in all cases: NCI tumour cell line growth inhibition, 48 h
OVCAR-5 ovarian = system: OVCAR-5 ovarian
UO-31 renal = system: UO-31 renal
MALME-3M melanoma = system: MALME-3M melanoma
HL-60(TB) leukemia = system: HL-60(TB) leukemia
UACC-62 melanoma = system: UACC-62 melanoma
OVCAR-3 ovarian = system: OVCAR-3 ovarian
CCRF-CEM leukemia = system: CCRF-CEM leukemia
CAKI-1 renal = system: CAKI-1 renal
SF-295 CNS = system: SF-295 CNS
SK-OV-3 ovarian = system: SK-OV-3 ovarian

Row | SMILES | TGI (OVCAR-5 ovarian) [µM] | TGI (UO-31 renal) [µM] | TGI (MALME-3M melanoma) [µM] | TGI (HL-60(TB) leukemia) [µM] | TGI (UACC-62 melanoma) [µM] | TGI (OVCAR-3 ovarian) [µM] | TGI (CCRF-CEM leukemia) [µM] | TGI (CAKI-1 renal) [µM] | TGI (SF-295 CNS) [µM] | TGI (SK-OV-3 ovarian) [µM] | GI50 (OVCAR-5 ovarian) [µM] | GI50 (UO-31 renal) [µM] | GI50 (MALME-3M melanoma) [µM] | GI50 (HL-60(TB) leukemia) [µM] | GI50 (UACC-62 melanoma) [µM] | GI50 (OVCAR-3 ovarian) [µM] | GI50 (CCRF-CEM leukemia) [µM] | GI50 (CAKI-1 renal) [µM] | GI50 (SF-295 CNS) [µM] | GI50 (SK-OV-3 ovarian) [µM]
1 | O=C1CNC(=O)N1 | > 1120 | > 1120 | > 1120 | > 1120 | > 1120 | > 1120 | > 954 | > 1120 | > 1120 | > 1120 |  |  |  |  |  |  |  |  |  | 
2 | Cc1cc(C)c(S(=O)(=O)N(CCCCCCN)OCCCON(CCCCCCN)S(=O)(=O)c2c(C)cc(C)cc2C)c(C)c1 | 2.72 | 4.04 | 3.66 | > 100 | 3.15 | 3.34 | > 100 | 3.7 | 3.41 | 3.37 |  |  |  |  |  |  |  |  |  | 
3 | CCOC(=O)c1csc(NC(=O)CCN2CCOCC2)n1 | > 100 | > 100 | > 100 | 94.4 | > 100 | > 100 | > 100 | > 100 | > 100 | > 100 |  |  |  |  |  |  |  |  |  | 
4 | Fc1cc(C2=Nn3c(nnc3-c3cc(F)c(Cl)cc3Cl)SC2)c(Cl)cc1Cl | > 100 | > 100 | 66.7 | > 100 | 38.6 | 46.9 | > 100 | 60.7 | 51.9 | > 100 | 56.8 | 31.3 | 28.4 | 80.4 | 13.3 | 11.5 | 22 | 20.6 | 20.3 | 29.2
5 | O=c1n(Cc2ccccc2)c2ccccc2n1CC1CS1 (stereo not given) | > 100 | > 100 | > 100 | > 100 | > 100 | > 100 | > 100 | > 100 | > 100 | > 100 |  |  |  |  |  |  |  |  |  | 
6 | CC1(C)CCCC2(C)[C@@H]1CC[C@]13C[C@](C)(CC[C@@H]21)[C@@H]3CO (stereo not given in full) | > 100 | > 100 | > 100 | > 100 | > 100 | > 100 | > 100 | > 100 | > 100 | > 100 |  |  |  |  |  |  |  |  |  | 
